From US10377783B2, “Methods and compounds for enhancing contrast in magnetic resonance imaging (MRI)” (priority 2015, dated 2019)
Where two headings read alike, the source gives them in different places.

Tests used:
[1] = Relaxivity measurements (T1 and T2 relaxation times, Bruker minispec mq60/mq20); type: physicochemical; settings: aqueous solution, 37° C.
Experimental: T1 and T2 relaxation times were measured at the STTARR Innovation Centre in Toronto, Canada using a Bruker minispec mq60, and at the Bruker Showroom in Milton, Canada using a Bruker minispec mq20. Measurements were carried out on a series of 6 aqueous dilutions between 0-5 mM.
The T1 and T2 relaxation times of the 8 soluble, pure complexes were measured in aqueous solution at 37° C., at both 20 and 60 MHz.

[2] = system: primary rat renal proximal tubule epithelial cells (RPTECs); experiment: In vitro toxicity, MTT assay; type: cell-based; settings: for cytotoxicity: 10 h time point, compared with 4 h; for IC50: rat RPTECs, MTT, read-out: Inhibitory concentration IC50
Experimental: Gadodiamide (Selleckchem, Lot #02) was used as the reference compound. It is one of the 8 Gd(III)-based MRI agents approved for use in Canada (trade name: Omniscan™).
The test articles and reference compound were weighed and dissolved in the incubation medium to give the highest test concentration of 30 mM. The solution was filter sterilized and diluted to the remaining test concentrations of 10 mM, 3.3 mM, 1.1 mM, 0.36 mM, 0.12 mM and 0.04 mM.
Cryopreserved primary rat renal proximal tubule epithelial cells (RPTECs) (ScienCell Research Laboratories, Carlsbad, Calif.) were used for the study. The rat RPTECs were thawed completely at 37° C., and transferred to epithelial cell medium (ScienCell Research Laboratories, Carlsbad, Calif.) followed by plating in poly-L-lysine coated 96-well plates. The RPTECs were allowed to recover and grow in a cell culture incubator (37° C., humidified atmosphere of 5% carbon dioxide and 95% air) for 3 additional days with a medium change every alternate day.
Following 3 days of plating, the RPTECs were washed once with serum free epithelial cell medium (ScienCell Research Laboratories, Carlsbad, Calif.) followed by treatment with the test, reference or control articles for 2, 4, 10 or 24 h. All treatments were performed in triplicate.
Cellular viability and metabolic activity were assessed by using the 3-(4,5-dimethylthiazol-2-yl)-2,5-diphenyl tetrazolium bromide (MTT) uptake assay. A 10× stock of the MTT dye was prepared in phosphate buffered saline (PBS). An aliquot of dye was added 2 hrs before the intended time point to achieve a final 1× concentration, after which incubation (37° C., humidified atmosphere of 5% carbon dioxide and 95% air) continued until the desired time point. For the 2 hr time point, the aliquot of dye was added immediately after the test articles. Following incubation, all media was aspirated from the wells and the plates were allowed to dry. The resulting formazan crystals were dissolved in DMSO using an orbital shaker, and the absorbance at 570 nm was measured using a Victor ^3V multilabel plate reader (reference wavelength=650 nm).
The inhibitory concentration (IC50, the concentration resulting in 50% toxicity) was determined by plotting log concentration vs. relative viability, followed by non-linear regression of the curve using Graph Pad Prism 5.0.
An in vitro toxicity study was performed in order to evaluate the cytotoxic potential of several of the agents in primary rat renal proximal tubule epithelial cells (RPTECs), prior to performing in vivo studies. The Mn^II and Gd^III complexes of L1, L2 and L6 (complexes 1, 2, 5, and 7-9) were evaluated at seven concentrations (30 mM, 10 mM, 3.3 mM, 1.1 mM, 0.36 mM, 0.12 mM and 0.04 mM) after 2, 4, 10 and 24 hours of treatment in rat RPTECs. The MTT assay was used as an indicator of viability. The nephrotoxic potential of the test articles was compared to the toxicity observed in the presence of the approved agent Gadodiamide. The results are summarized in Table 4, where the inhibitory concentration (IC50, the concentration resulting in 50% toxicity) was determined by plotting log concentration vs. relative viability.

[3] = system: male rat (Sprague Dawley Crl:SD); experiment: In vivo MRI imaging of 2 and 6, T1-weighted scans; settings: for T1-weighted MRI signal intensity, bladder: baseline (−10 min) 5085; for T1-weighted MRI signal intensity, lean muscle: baseline (−10 min) 5640; for T1-weighted MRI signal intensity, liver: baseline (−10 min) 7276; for T1-weighted MRI signal intensity, renal medulla: baseline (−10 min) 7725; for T1-weighted MRI signal intensity, renal cortex: baseline (−10 min) 8005; for T1-weighted MRI signal intensity, fat: baseline (−10 min) 14509
Experimental: Compound 1 (aq., 12.5 mM) was injected intravenously into 2 male rats (Sprague Dawley Crl:SD, 312-338 g) at a dosage of 0.02 mmol/kg following anaesthesia with 5% isoflurane. Compound 2 (aq., 6.25 mM) was injected intravenously into 1 male rat (Sprague Dawley Crl:SD, 349 g) at a dosage of 0.01 mmol/kg following anaesthesia with 5% isoflurane. Compound 6 (aq., 6.25 mM) was injected intravenously into 1 male rat (Sprague Dawley Crl:SD, 341 g) at a dosage of 0.01 mmol/kg following anaesthesia with 5% isoflurane. Anesthesia was maintained at 2-2.5% isoflurane through a nose cone for the duration of the scans. Fast-spin-echo images were collected for 45 mins. immediately post-injection. For compound 1, the DT1-weighted RARE (Rapid Acquisition Relaxation Enhancement) scans were acquired with an echo time of 10 ms, and a repetition time=respiratory cycle duration (˜1100 ms). Both T1- and T2-weighted scans were collected on compounds 2 and 6.
The in vivo contrast potential of compounds 1, 2 and 6 were studied via the collection of fast-spin-echo images for 30-45 minutes immediately following injection of an aqueous solution of each complex. The dosage chosen for 1 was 0.02 mmol/kg (c=[…]) while the dosage chosen for 2 and 6 was 0.01 mmol/kg (c=6.25 mM). Predominantly T1-weighted scans with some T2-weighting were performed on two rats injected with 1.
Both T1- and T2-weighted scans were performed on two rats injected with 2 and its dimeric analogue 6.

[4] = 1 min after injection of 2, 0.01 mmol/kg iv
[5] = 15 min after injection of 2, 0.01 mmol/kg iv
[6] = 30 min after injection of 2, 0.01 mmol/kg iv
[7] = 45 min after injection of 2, 0.01 mmol/kg iv
[8] = injection of 2, 0.01 mmol/kg iv, first 45 min

CC1=NCCNCCNCCN=C(C)c2cccc1n2.O.O.[Cl-].[Cl-].[Mn+2] [Compound 1, [MnL1Cl2].2H2O]
r1 relaxivity ([1]; 20 MHz): 3.78 s⁻¹ mM⁻¹
r1 relaxivity ([1]; 60 MHz): 2.76 s⁻¹ mM⁻¹
nephrotoxicity ([2]; 2 and 4 h of treatment, 0.04-30 mM): did not show significant nephrotoxicity
cytotoxicity [2]: did not display significant cytotoxicity
nephrotoxic effects ([2]; 24 h of treatment): exhibiting the least nephrotoxic effects
IC50 ([2]; 24 hr treatment): 5.47 mM

CC1=NCCOCCOCCN=C(C)c2cccc1n2.O.O.[Cl-].[Cl-].[Mn+2] [Compound 2, [MnL2Cl2].2H2O]
r1 relaxivity ([1]; 20 MHz): 3.58 s⁻¹ mM⁻¹
r1 relaxivity ([1]; 60 MHz): 2.78 s⁻¹ mM⁻¹
IC50 ([2]; 2 hr treatment): 3.88 mM
IC50 ([2]; 4 hr treatment): 2.56 mM
IC50 ([2]; 10 hr treatment): 14.7 mM
cytotoxicity [2]: exhibited a slight reduction in toxicity
IC50 ([2]; 24 hr treatment): 0.68 mM
excretion (summary) ([3]; 0.01 mmol/kg iv): rapid excretion
T1-weighted MRI signal intensity, bladder [3, 4]: 5155 arbitrary units of voxel intensity
T1-weighted MRI signal intensity, lean muscle [3, 4]: 5841 arbitrary units of voxel intensity
T1-weighted MRI signal intensity, liver [3, 4]: 7568 arbitrary units of voxel intensity
T1-weighted MRI signal intensity, renal medulla [3, 4]: 9169 arbitrary units of voxel intensity
T1-weighted MRI signal intensity, renal cortex [3, 4]: 9368 arbitrary units of voxel intensity
T1-weighted MRI signal intensity, fat [3, 4]: 15671 arbitrary units of voxel intensity
T1-weighted MRI signal intensity, bladder [3, 5]: 16182 arbitrary units of voxel intensity
T1-weighted MRI signal intensity, lean muscle [3, 5]: 5696 arbitrary units of voxel intensity
T1-weighted MRI signal intensity, liver [3, 5]: 7385 arbitrary units of voxel intensity
T1-weighted MRI signal intensity, renal medulla [3, 5]: 8472 arbitrary units of voxel intensity
T1-weighted MRI signal intensity, renal cortex [3, 5]: 10144 arbitrary units of voxel intensity
T1-weighted MRI signal intensity, fat [3, 5]: 15845 arbitrary units of voxel intensity
T1-weighted MRI signal intensity, bladder [3, 6]: 11996 arbitrary units of voxel intensity
T1-weighted MRI signal intensity, lean muscle [3, 6]: 5569 arbitrary units of voxel intensity
T1-weighted MRI signal intensity, liver [3, 6]: 7812 arbitrary units of voxel intensity
T1-weighted MRI signal intensity, renal medulla [3, 6]: 7969 arbitrary units of voxel intensity
T1-weighted MRI signal intensity, renal cortex [3, 6]: 10702 arbitrary units of voxel intensity
T1-weighted MRI signal intensity, fat [3, 6]: 15745 arbitrary units of voxel intensity
T1-weighted MRI signal intensity, bladder [3, 7]: 13104 arbitrary units of voxel intensity
T1-weighted MRI signal intensity, lean muscle [3, 7]: 5574 arbitrary units of voxel intensity
T1-weighted MRI signal intensity, liver [3, 7]: 7683 arbitrary units of voxel intensity
T1-weighted MRI signal intensity, renal medulla [3, 7]: 8615 arbitrary units of voxel intensity
T1-weighted MRI signal intensity, renal cortex [3, 7]: 11485 arbitrary units of voxel intensity
T1-weighted MRI signal intensity, fat [3, 7]: 15860 arbitrary units of voxel intensity
Max. intensity change, T1-weighted, bladder [3, 8]: 218%
Max. intensity change, T1-weighted, fat [3, 8]: 9%
Max. intensity change, T1-weighted, lean muscle [3, 8]: 3%
Max. intensity change, T1-weighted, liver [3, 8]: 7%
Max. intensity change, T1-weighted, renal cortex [3, 8]: 43%
Max. intensity change, T1-weighted, renal medulla [3, 8]: 19%
effect on T1-weighted signal intensity ([3]; renal cortex, liver and lean muscle, 0.01 mmol/kg iv): causes an enhancement in the renal cortex and has negligible effect on liver and lean muscle tissue
